Patent publication US9096492B2, “Hydrated N-fullerene amino acids, method for producing the latter, and pharmaceutical compositions on the basis thereof” (priority 2011, dated 2015)
Read-outs that look alike come from different tables or passages of the source.

Legend:
[1] = tested on: A/Puerto Rico/8/34 (H1N1) influenza virus; assay type: in vivo, mice; conditions: for Size of chronic post-influenza pneumonia sites (% of the total surface area of the lungs): the lower of the virus doses used, day 15
[2] = tested on: A/Vladivostok/2/09 (H1N1) influenza virus; assay type: in vivo, mice; conditions: for Size of chronic post-influenza pneumonia sites (% of the total surface area of the lungs): the lower of the virus doses used, day 15
[3] = Tamiflu 20 mg/kg, Summary dose, n=28
[4] = Tamiflu 20 mg/kg, Summary dose, n=19

CCOC(=O)C1=C[C@@H](OC(CC)CC)[C@H](NC(C)=O)[C@@H](N)C1.O=P(O)(O)O [Tamiflu, ethyl(3R,4R,5S)-4-acetamido-5-amino-3-(1-ethylpropoxy)-1-cyclohexene-1-carboxylate phosphate, reference compound]
reduction of the death rate compared to the control ([1]; Tamiflu): approximately 70% | Average lifetime (LD) [1, 3]: 13.9 days | Increase in LD [1, 3]: 3.6 days | Index of protection, % [1, 3]: 66.7% | Mortality rate, % [1, 3]: 21.4% | Number of survivors [1, 3]: 22 | Average lifetime (LD) ([1]; Tamiflu 20 mg/kg, […], n=13): 14.4 days | Increase in LD ([1]; Tamiflu 20 mg/kg, […], n=13): 2.1 days | Index of protection, % ([1]; Tamiflu 20 mg/kg, […], n=13): 67.0% | Mortality rate, % ([1]; Tamiflu 20 mg/kg, […], n=13): 15.4% | Number of survivors ([1]; Tamiflu 20 mg/kg, […], n=13): 11 | Average lifetime (LD) ([1]; Tamiflu 20 mg/kg, […], n=15): 13.5 days | Increase in LD ([1]; Tamiflu 20 mg/kg, […], n=15): 5.5 days | Index of protection, % ([1]; Tamiflu 20 mg/kg, […], n=15): 68.5% | Mortality rate, % ([1]; Tamiflu 20 mg/kg, […], n=15): 26.7% | Number of survivors ([1]; Tamiflu 20 mg/kg, […], n=15): 11 | Size of chronic post-influenza pneumonia sites (% of the total surface area of the lungs) ([1]; Tamiflu 20 mg/kg): 15 ± 4; % | activity against the strain ([2]; Tamiflu 20 mg/kg): inactive | Average lifetime (LD) [2, 4]: 12.5 days | Increase in LD [2, 4]: 0.2 days | Index of protection, % [2, 4]: 14.0% | Mortality rate, % [2, 4]: 36.8% | Number of survivors [2, 4]: 12 | Average lifetime (LD) ([2]; Tamiflu 20 mg/kg, […], n=9): 13.4 days | Increase in LD ([2]; Tamiflu 20 mg/kg, […], n=9): 0.3 days | Index of protection, % ([2]; Tamiflu 20 mg/kg, […], n=9): 18.5% | Mortality rate, % ([2]; Tamiflu 20 mg/kg, […], n=9): 22.2% | Number of survivors ([2]; Tamiflu 20 mg/kg, […], n=9): 7 | Average lifetime (LD) ([2]; Tamiflu 20 mg/kg, […], n=10): 11.7 days | Increase in LD ([2]; Tamiflu 20 mg/kg, […], n=10): 0.3 days | Index of protection, % ([2]; Tamiflu 20 mg/kg, […], n=10): 16.7% | Mortality rate, % ([2]; Tamiflu 20 mg/kg, […], n=10): 50.0% | Number of survivors ([2]; Tamiflu 20 mg/kg, […], n=10): 5 | Size of chronic post-influenza pneumonia sites (% of the total surface area of the lungs) ([2]; Tamiflu 20 mg/kg): 15 ± 5%

N-fullerene tris(δ-aminocaproic acid) hydrate [Agent 1]
Average lifetime (LD) ([1]; 30 mg/kg, Summary dose, n=29): 11.8 days | Increase in LD ([1]; 30 mg/kg, Summary dose, n=29): 1.4 days | Mortality rate, % ([1]; 30 mg/kg, Summary dose, n=29): 55.2% | Number of survivors ([1]; 30 mg/kg, Summary dose, n=29): 13 | Average lifetime (LD) ([1]; 30 mg/kg, […], n=14): 13.3 days | Increase in LD ([1]; 30 mg/kg, […], n=14): 1.0 days | Mortality rate, % ([1]; 30 mg/kg, […], n=14): 35.7% | Number of survivors ([1]; 30 mg/kg, […], n=14): 9 | Average lifetime (LD) ([1]; 30 mg/kg, […], n=15): 10.4 days | Increase in LD ([1]; 30 mg/kg, […], n=15): 2.3 days | Mortality rate, % ([1]; 30 mg/kg, […], n=15): 73.3% | Number of survivors ([1]; 30 mg/kg, […], n=15): 4 | Average lifetime (LD) ([1]; 100 mg/kg, Summary dose, n=30): 12.6 days | Increase in LD ([1]; 100 mg/kg, Summary dose, n=30): 2.2 days | Mortality rate, % ([1]; 100 mg/kg, Summary dose, n=30): 40.0% | Number of survivors ([1]; 100 mg/kg, Summary dose, n=30): 18 | Average lifetime (LD) ([1]; 300 mg/kg, Summary dose, n=29): 12.5 days | Increase in LD ([1]; 300 mg/kg, Summary dose, n=29): 2.2 days | Mortality rate, % ([1]; 300 mg/kg, Summary dose, n=29): 31.0% | Number of survivors ([1]; 300 mg/kg, Summary dose, n=29): 20 | Average lifetime (LD) ([1]; 300 mg/kg, […], n=14): 11.3 days | Increase in LD ([1]; 300 mg/kg, […], n=14): 3.2 days | Mortality rate, % ([1]; 300 mg/kg, […], n=14): 42.9% | Number of survivors ([1]; 300 mg/kg, […], n=14): 8 | Average lifetime (LD) ([1]; 300 mg/kg, […], n=15): 13.7 days | Increase in LD ([1]; 300 mg/kg, […], n=15): 1.3 days | Mortality rate, % ([1]; 300 mg/kg, […], n=15): 20.0% | Number of survivors ([1]; 300 mg/kg, […], n=15): 12 | Size of chronic post-influenza pneumonia sites (% of the total surface area of the lungs) ([1]; 300 mg/kg): 13 ± 3% | Average lifetime (LD) ([2]; 30 mg/kg, Summary dose, n=25): 13.7 days | Increase in LD ([2]; 30 mg/kg, Summary dose, n=25): 1.4 days | Mortality rate, % ([2]; 30 mg/kg, Summary dose, n=25): 28.0% | Number of survivors ([2]; 30 mg/kg, Summary dose, n=25): 18 | Average lifetime (LD) ([2]; 30 mg/kg, […], n=12): 13.2 days | Increase in LD ([2]; 30 mg/kg, […], n=12): 1.8 days | Mortality rate, % ([2]; 30 mg/kg, […], n=12): 41.7% | Number of survivors ([2]; 30 mg/kg, […], n=12): 7 | Average lifetime (LD) ([2]; 30 mg/kg, […], n=13): 14.2 days | Increase in LD ([2]; 30 mg/kg, […], n=13): 1.0 days | Mortality rate, % ([2]; 30 mg/kg, […], n=13): 15.4% | Number of survivors ([2]; 30 mg/kg, […], n=13): 11 | Average lifetime (LD) ([2]; 100 mg/kg, Summary dose, n=22): 13.6 days | Increase in LD ([2]; 100 mg/kg, Summary dose, n=22): 1.3 days | Mortality rate, % ([2]; 100 mg/kg, Summary dose, n=22): 27.3% | Number of survivors ([2]; 100 mg/kg, Summary dose, n=22): 16 | Average lifetime (LD) ([2]; 100 mg/kg, […], n=10): 14.0 days | Increase in LD ([2]; 100 mg/kg, […], n=10): 0.8 days | Mortality rate, % ([2]; 100 mg/kg, […], n=10): 20.0% | Number of survivors ([2]; 100 mg/kg, […], n=10): 8 | Average lifetime (LD) ([2]; 100 mg/kg, […], n=12): 13.3 days | Increase in LD ([2]; 100 mg/kg, […], n=12): 1.9 days | Mortality rate, % ([2]; 100 mg/kg, […], n=12): 33.3% | Number of survivors ([2]; 100 mg/kg, […], n=12): 8 | Average lifetime (LD) ([2]; 300 mg/kg, Summary dose, n=26): 14.2 days | Increase in LD ([2]; 300 mg/kg, Summary dose, n=26): 1.8 days | Mortality rate, % ([2]; 300 mg/kg, Summary dose, n=26): 15.4% | Number of survivors ([2]; 300 mg/kg, Summary dose, n=26): 22 | Size of chronic post-influenza pneumonia sites (% of the total surface area of the lungs) ([2]; 300 mg/kg): 7 ± 2%
